{"source": "paper PMC2673089", "about": "(Journal of pharmaceutical sciences, 2008)", "key": {"MDCK-MDR1 monolayers [1]": {"system": "MDCK-MDR1 monolayers", "assay": "Bidirectional transport and verapamil inhibition across MDCK-MDR1 monolayers", "type": "in vitro ADME", "details": "MDCK-MDR1"}, "Caco-2 monolayers [2]": {"system": "Caco-2 monolayers", "assay": "Bidirectional transport and verapamil inhibition across Caco-2 monolayers", "type": "in vitro ADME", "details": "0.1 mM, absence of verapamil, mean ± SD (n = 3)"}, "[3]": {"system": "extracellular levels of DA in the nucleus accumbens (NAc)", "details": "cited from earlier work"}, "DA uptake": {"system": "DA uptake", "details": "read-out: DA Uptake IC50; mean ± SEM; cited from earlier work"}, "MDCK-MDR1 monolayers [4]": {"system": "MDCK-MDR1 monolayers", "details": "MDCK-MDR1 monolayer characterization; cited from earlier work"}, "Caco-2 monolayers [5]": {"system": "Caco-2 monolayers", "details": "Caco-2 monolayer characterization; cited from earlier work"}, "[6]": {"details": "0.1 mM, absence of verapamil, mean ± SD (n = 3)"}}, "note": "Marks after values point to notes of the source that are not given here."}
{"smiles": "C[N+]1(C)C2CCC1CC(OC(c1ccc(F)cc1)c1ccc(F)cc1)C2", "note": "(stereo not drawn) [JHW 025, N-(dimethyl)-3α-[(bis-4′-fluorophenyl)methoxy]tropane, reference compound]", "values": [{"measurement": "Efflux Ratio", "setting": "MDCK-MDR1 monolayers [1]; 0.1 mM, Papp(B-A)/Papp(A-B)", "value": 1.5}, {"measurement": "Papp A-B", "setting": "MDCK-MDR1 monolayers [1]; [6]", "value": "5.00 ± 0.31 × 10^−6 cm/s"}, {"measurement": "Papp B-A", "setting": "MDCK-MDR1 monolayers [1]; [6]", "value": "7.39 ± 1.17 × 10^−6 cm/s"}, {"measurement": "Enhancement ratio of A-B transport by verapamil", "setting": "MDCK-MDR1 monolayers [1]; verapamil 200 μM", "value": 1.2}, {"measurement": "Papp A-B", "setting": "Caco-2 monolayers [2]", "value": "<0.34 ^a × 10^−6 cm/s"}, {"measurement": "Papp B-A", "setting": "Caco-2 monolayers [2]", "value": "1.8 ± 0.25 × 10^−6 cm/s"}]}
{"smiles": "COC(=O)[C@H]1[C@@H](OC(=O)c2ccccc2)C[C@@H]2CC[C@H]1N2C", "note": "[cocaine]", "values": [{"measurement": "DA increase", "setting": "[3]; 3 mg/kg i.v., similar microdialysis technique, ref Baumann et al.[41]", "value": "six-fold"}, {"measurement": "DA elevation", "setting": "[3]; 5 mg/kg i.v., identical stereotaxic coordinates", "value": 10, "unit": "fold"}]}
{"smiles": "CN1[C@@H]2CC[C@H]1C[C@@H](OC(c1ccccc1)c1ccccc1)C2", "note": "[BZT, benztropine, reference compound]", "values": [{"measurement": "IC50", "setting": "DA uptake", "value": "403 ± 115", "unit": "nM"}]}
{"smiles": "CC(C)NCC(O)COc1cccc2ccccc12", "note": "(centres unmarked) [propranolol]", "values": [{"measurement": "Papp of marker compounds", "setting": "MDCK-MDR1 monolayers [4]", "value": 24.33, "unit": "×10⁻⁶ cm/s"}, {"measurement": "Papp of marker compounds", "setting": "Caco-2 monolayers [5]", "value": 13.34, "unit": "×10⁻⁶ cm/s"}]}
